Columns and labels:
[1] = test system: acquired peripheral nerve injury animal model; assay: Rotarod test in acquired peripheral nerve injury animal model; assay type: in vivo, C57BL/6 mice; settings: weeks 3 and 6; all KINE-101-treated groups (10, 50, 100 mg/kg); vs Injury Ctr
Text: Specifically, a uniform nerve injury model can be obtained by damaging the nerve emerging from the spinal cord at a predetermined intensity for a certain period of time, and since both the intensity and duration can be controlled, it is possible to establish a nerve injury model that persists for a desired period. For the disease induction groups, the boundary region between the gluteal muscle and the femoral muscle of the mouse was incised to expose the sciatic nerve. The nerve was then grasped and injured for a predetermined period using a surgical tool (MacJam) at one of three intensities (stages 1, 2, or 3; stage 3 for 3 seconds was used as the reference), after which the incision was sutured to establish an acquired peripheral nerve injury animal model. […]
Demyelinating diseases are known to be accompanied by symptoms such as muscle weakness and impaired balance. […] Specifically, the phenotype of the experimental animals was analyzed using rotarod, grip strength, and tail suspension tests. […] Using a rotarod apparatus (ROTA ROD, LE8205, Panlab), the time during which the animal remained on the rotating rod was measured for 2 minutes and 30 seconds at a fixed speed of 8 rpm. For each evaluation, three trials were conducted, and the maximum duration among the trials was analyzed.

[2] = test system: acquired peripheral nerve injury animal model; assay: Histopathological examination of nerve tissues (toluidine blue, TEM), acquired peripheral nerve injury animal model; assay type: in vivo, C57BL/6 mice; settings: for myelinated axons and unmyelinated fibers: vs acquired peripheral nerve injury group
Text: (§1) Specifically, a uniform nerve injury model can be obtained by damaging the nerve emerging from the spinal cord at a predetermined intensity for a certain period of time, and since both the intensity and duration can be controlled, it is possible to establish a nerve injury model that persists for a desired period. For the disease induction groups, the boundary region between the gluteal muscle and the femoral muscle of the mouse was incised to expose the sciatic nerve. The nerve was then grasped and injured for a predetermined period using a surgical tool (MacJam) at one of three intensities (stages 1, 2, or 3; stage 3 for 3 seconds was used as the reference), after which the incision was sutured to establish an acquired peripheral nerve injury animal model. From the day following disease induction, KINE-101 dissolved in DPBS was administered intravenously (I.V.) at doses of 10, 50, and 100 mg/kg three times per week for a total of four weeks.
Specifically, KINE-101 was administered to the acquired peripheral nerve injury animal model for four weeks according to the method described in Example <4-1>, and the experimental animals were sacrificed six weeks after the start of administration. Thereafter, peripheral nerve tissues of the hind limbs were isolated and fixed in a 4% paraformaldehyde solution containing 2.5% glutaraldehyde. After ethanol dehydration, the tissues were embedded in epoxy resin and semi-thin sections (1 μm) were prepared. The semi-thin sections were stained with toluidine blue for 5-10 seconds and observed under a light microscope. In addition, ultra-thin sections (65 nm) were prepared, and tissue cross-sections were observed using a transmission electron microscope (TEM) to examine abnormalities of myelin (demyelination, dysmyelination, and hypermyelination).

CIDP animal model [3] = assay: Clinical score in CIDP animal model (S-palmP0(180-199)), KINE-101 vs IVIg; assay type: in vivo, Lewis rats
Treg cells = assay: Treg cell proportion and activation in lymph nodes at nerve injury site (flow cytometry); assay type: in vivo, C57BL/6 mice
Text: as §1
Specifically, KINE-101 was administered to the acquired peripheral nerve injury animal model for four weeks according to the method described in Example <4-1>, and the experimental animals were sacrificed six weeks after the start of administration. Thereafter, immune cells were isolated from the lymph nodes at the nerve injury site of the experimental animals. The isolated immune cells were subjected to fluorescent staining for CD4 and Foxp3 proteins, and the proportion of Treg cells among CD4 T cells was determined by flow cytometry. In addition, fluorescent staining for the CTLA4 protein, which is an activation marker of Treg cells, was performed, and the level of CTLA4 expression in Treg cells was compared by flow cytometric analysis to evaluate the degree of activation.

[4] = Body weight change in CIDP animal model (S-palmP0(180-199)); assay type: in vivo, Lewis rats
Experimental: (§2) Specifically, male Lewis rats (7 weeks old) were obtained and acclimatized for one week. Thereafter, solution A was prepared by dissolving s-palm PO, in which palmitic acid is conjugated to cysteine at the 181st amino acid of peripheral myelin PO protein described in <Example 2>, in saline at a concentration of 2 mg/mL. Solution B was prepared by dissolving Mycobacterium tuberculosis in Freund's adjuvant at a concentration of 5 mg/mL. A sterile 25 mL tube was placed in an ice box, and solutions A and B were mixed at a ratio of 1:1 and homogenized for 15 minutes using a homogenizer to prepare an emulsion. The emulsion (200 μL) was then administered by subcutaneous injection at the base of the rat tail to induce the disease. […] The KINE-101 administration groups received KINE-101 dissolved in DPBS at doses of 6.25, 12.5, 25, and 37.5 mg/kg by intravenous injection (I.V.) three times per week for 15 days, starting the day after disease induction. The IVIg administration group received IVIg at a dose of 400 mg/kg once daily for 5 days starting the day after disease induction. The experiment was terminated on day 15 after disease induction.
Specifically, body weight was measured during administration of KINE-101 or IVIg by the method described in Example <3-1>, and the change in body weight was calculated relative to the body weight before disease induction (Day 0).

[5] = test system: chronic inflammatory demyelinating polyneuropathy (CIDP) animal model; assay: Demyelination in peripheral nerve tissues (TEM), CIDP animal model; assay type: in vivo, Lewis rats; settings: KINE-101 50 mg/kg I.V.; hind limb peripheral nerve
Experimental: Female Lewis rats (7 weeks old) were obtained and acclimatized for one week. Thereafter, solution A was prepared by dissolving peripheral myelin PO protein (180-199) in 0.9% saline at a concentration of […], and solution B was prepared by dissolving Mycobacterium tuberculosis in Freund's incomplete adjuvant at a concentration of […]. A sterile 50 ml tube was placed in an ice box, and solutions A and B were mixed at a ratio of 1:1. The mixture was then homogenized using a homogenizer for 15 minutes to prepare an emulsion. The prepared emulsion was loaded into a 1 ml syringe, the syringe needle was replaced with a 25G needle, and the syringe was stored in an ice box containing ice until use. The emulsion (200 μL) was subcutaneously (S.C.) injected into the tail of the Lewis rats to induce the disease. […] From the day following disease induction, KINE-101 dissolved in DPBS was intravenously (I.V.) administered three times per week at doses of 1, 5, 25, and 50 mg/kg.
Tissue cross-sections were then observed using a transmission electron microscope (TEM) to evaluate the degree of myelin loss. In addition, comparisons were made with the normal group (Normal) and the CIDP-induced group (EAN PO (180-199)).

CIDP animal model [6] = assay: Nerve conduction studies (MNCV, CMAP, SNCV, SNAP) in CIDP animal model; assay type: in vivo, Lewis rats
Experimental: as §2
(§3) Specifically, KINE-101 or IVIg was administered by the method described in Example <3-1>, and after completion of the experiment, the animals were anesthetized with 1.5% isoflurane and examined. The fur from the distal region of the hind limb to the upper region was removed, and nerve conduction studies for measuring motor and sensory nerves were performed using a Nicolet VikingQuest device as the electrophysiological examination instrument. For the nerve conduction study, a needle electrode was placed on the motor nerve or sensory nerve, and a reference electrode was placed on the gastrocnemius muscle. The stimulating cathode was positioned in the middle of the posterior thigh near the recording electrode, and stimulation was applied at both distal and proximal sites. Motor nerve conduction velocity (MNCV) and compound muscle action potential (CMAP) of the motor nerve, as well as sensory nerve conduction velocity (SNCV) and sensory nerve action potential (SNAP) of the sensory nerve, were measured.

[7] = test system: chronic inflammatory demyelinating polyneuropathy (CIDP) animal model; assay: Clinical score in CIDP animal model (EAN P0(180-199)); assay type: in vivo, Lewis rats
Experimental: Female Lewis rats (7 weeks old) were obtained and acclimatized for one week. Thereafter, solution A was prepared by dissolving peripheral myelin PO protein (180-199) in 0.9% saline at a concentration of […], and solution B was prepared by dissolving Mycobacterium tuberculosis in Freund's incomplete adjuvant at a concentration of […]. A sterile 50 ml tube was placed in an ice box, and solutions A and B were mixed at a ratio of 1:1. The mixture was then homogenized using a homogenizer for 15 minutes to prepare an emulsion. The prepared emulsion was loaded into a 1 ml syringe, the syringe needle was replaced with a 25G needle, and the syringe was stored in an ice box containing ice until use. The emulsion (200 μL) was subcutaneously (S.C.) injected into the tail of the Lewis rats to induce the disease. […]
In order to examine the progression of CIDP following administration of KINE-101, the severity of CIDP over time after administration of KINE-101 to the CIDP animal model was evaluated and measured using a clinical score.
Specifically, during administration of KINE-101 by the method described in Example <2-1>, the symptoms were evaluated on a scale of 0 to 5 according to the criteria shown in Table 3 below. […] The severity of CIDP was quantified by calculating the average value of the results evaluated for each individual.

[8] = test system: acquired peripheral nerve injury animal model; assay: Nerve conduction studies in acquired peripheral nerve injury animal model; assay type: in vivo, C57BL/6 mice
Experimental: as §3, §1
Specifically, mice were anesthetized with 1.5% isoflurane at weeks 0, 3, and 6 after administration of KINE-101 according to the method described in Example <4-1>, and MNCV, CMAP, SNCV, and SNAP were measured by the same method described in Example <3-4> to determine whether motor nerves and sensory nerves were damaged.

[9] = all KINE-101-treated groups (6.25-37.5 mg/kg I.V.), after day 15
[10] = all KINE-101-treated groups, IVIg 400 mg/kg
[11] = week 3, KINE-101 10 mg/kg I.V. three times per week for four weeks
[12] = week 3, KINE-101 50 mg/kg I.V. three times per week for four weeks
[13] = week 6, KINE-101 50 mg/kg I.V. three times per week for four weeks
[14] = weeks 3 and 6, KINE-101-treated groups (10, 50, 100 mg/kg)

PSPPSPPSP [KINE-101, trimeric polymer prepared using a PSP fragment (PSP monomer)]
muscle strength and balance (rotarod) [1]: improved muscle strength and balance | myelinated axons and unmyelinated fibers ([2]; KINE-101 50 mg/kg): marked increase in myelinated axons and a decrease in unmyelinated fibers | myelinated axons and unmyelinated fibers ([2]; KINE-101 100 mg/kg): marked increase in myelinated axons and a decrease in unmyelinated fibers | myelination ([2]; KINE-101-treated groups (10, 50, 100 mg/kg), six weeks after start of administration, vs Injury Ctr): improved myelination | number of large myelinated fibers and small unmyelinated fibers ([2]; KINE-101-treated groups, six weeks after start of administration): an increase in the number of large myelinated fibers and a decrease in the number of small unmyelinated fibers | clinical score (CIDP animal model [3]; KINE-101 25 mg/kg I.V. three times per week): lowest clinical score | clinical score (CIDP animal model [3]; all KINE-101-treated groups (6.25 mg/kg to 37.5 mg/kg I.V. three times per week), day 15 after disease induction): lower clinical scores on day 15 after disease induction compared with the negative control group | CTLA4 expression in Treg cells (activation marker) (Treg cells; KINE-101 50 mg/kg): increased to a statistically significant level | proportion of Treg cells among CD4 T cells in lymph nodes at nerve injury site (Treg cells; KINE-101 50 mg/kg): increased to a statistically significant level | CTLA4 expression in Treg cells (activation marker) (Treg cells; KINE-101-treated groups (10, 50, 100 mg/kg)): increased | proportion of Treg cells among CD4 T cells in lymph nodes at nerve injury site (Treg cells; KINE-101-treated groups (10, 50, 100 mg/kg), six weeks after start of administration): increased | body weight improvement effect ([4]; KINE-101 12.5 mg/kg I.V.): most pronounced body weight improvement effect | body weight gain vs negative control group ([4]; KINE-101-treated groups (6.25-37.5 mg/kg I.V.)): greater body weight gain compared with the negative control group | body weight vs before disease induction (Day 0) ([4]; KINE-101-treated groups, day 15 after disease induction): maintained significantly higher body weight than that before disease induction | demyelination (degree of myelin loss, TEM) [5]: demyelination was suppressed similarly to that observed in the normal group | MNCV and CMAP (CIDP animal model [6]; KINE-101 12.5 mg/kg I.V.): most pronounced effect | SNCV and SNAP (CIDP animal model [6]; KINE-101 12.5 mg/kg I.V.): most pronounced effect | compound muscle action potential (CMAP) (CIDP animal model [6]; [9]): higher MNCV and CMAP values compared with the negative control group | motor nerve conduction velocity (MNCV) (CIDP animal model [6]; [9]): higher MNCV and CMAP values compared with the negative control group | sensory nerve action potential (SNAP) (CIDP animal model [6]; [9]): higher SNCV and SNAP values compared with the negative control group | sensory nerve conduction velocity (SNCV) (CIDP animal model [6]; [9]): higher SNCV and SNAP values compared with the negative control group | MNCV and CMAP vs IVIg-treated group (CIDP animal model [6]; [10]): effects similar to or superior to those of the IVIg-treated group | SNCV and SNAP vs IVIg-treated group (CIDP animal model [6]; [10]): effects similar to those of the IVIg-treated group | clinical score ([7]; KINE-101 50 mg/kg I.V. three times per week): lowest clinical score | clinical score (CIDP symptoms) ([7]; all KINE-101-treated groups (1, 5, 25, 50 mg/kg I.V. three times per week), vs CIDP-induced group): alleviation of symptoms after day 15 | CMAP [8, 11]: 11.0±2.3 mV | SNCV [8, 11]: 27.7±2.8 m/s | MNCV [8, 12]: 46.7±7.4 m/s | SNAP [8, 12]: 11.2±3.1 μV | SNCV [8, 12]: 27.6±2.2 m/s | SNCV ([8]; week 3, KINE-101 100 mg/kg I.V. three times per week for four weeks): 28.6±3.7 m/s | CMAP [8, 13]: 32.9±4.0 mV | MNCV [8, 13]: 63.9±7.6 m/s | SNAP [8, 13]: 12.3±2.9 μV | SNCV [8, 13]: 27.9±3.1 m/s | MNCV ([8]; week 6, KINE-101 100 mg/kg I.V. three times per week for four weeks): 59.0±4.5 m/s | MNCV ([8]; week 6, KINE-101-treated groups (10, 50, 100 mg/kg)): increased | CMAP [8, 14]: increased compared with those in the acquired peripheral nerve injury group | SNAP [8, 14]: increased compared with those in the acquired peripheral nerve injury group

From patent US20260256872A1, “PEPTIDE FOR TREATING DEMYELINATING DISEASES AND USE THEREOF” (KINE SCIENCES Co., Ltd., priority 2023, published 2026)
